Results: publication PMC2890037 (Biochemistry, 2010)
Where a chain is given by its changes, count along the chain named.

Assays:
Format in all cases: biochemical
[1] = biological target: T1, triosephosphate isomerase (TIM), wildtype yeast (Saccharomyces cerevisiae, UniProt P00942); experiment: steady-state kinetics of isomerization; settings: read-out: Km ^b mM
T1 sequence (P00942 2-248): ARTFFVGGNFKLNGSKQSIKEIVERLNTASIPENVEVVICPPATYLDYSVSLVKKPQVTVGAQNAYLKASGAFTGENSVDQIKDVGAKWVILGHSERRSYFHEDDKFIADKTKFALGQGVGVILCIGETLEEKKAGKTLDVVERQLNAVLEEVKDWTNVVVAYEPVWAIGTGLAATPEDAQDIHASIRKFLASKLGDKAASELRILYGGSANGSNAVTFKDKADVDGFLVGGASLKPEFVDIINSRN

[2] = biological target: T1, triosephosphate isomerase (TIM), wildtype yeast
[3] = biological target: T2, triosephosphate isomerase (TIM), K12G mutant yeast (Saccharomyces cerevisiae, UniProt P00942, K12G)
T2 sequence (P00942 2-248 K12G): T1 sequence (P00942 2-248) with K11G

O=C[C@H](O)COP(=O)(O)O [GAP, (R)-glyceraldehyde 3-phosphate]
Km [1]: 1.1 ± 0.2 mM

O=C(O)COP(=O)(O)O [PGA, 2-phosphoglycolate]
Ki [2]: 19 ± 4 µM
Ki [3]: 1100 ± 200 µM
